Biological target: T1, Human TRPV3 (Homo sapiens, UniProt Q8NET8)
T1 construct: expressed in transfected cells; host or cells: CHO cells (G-418 selected)
T1 sequence (Q8NET8 1-790): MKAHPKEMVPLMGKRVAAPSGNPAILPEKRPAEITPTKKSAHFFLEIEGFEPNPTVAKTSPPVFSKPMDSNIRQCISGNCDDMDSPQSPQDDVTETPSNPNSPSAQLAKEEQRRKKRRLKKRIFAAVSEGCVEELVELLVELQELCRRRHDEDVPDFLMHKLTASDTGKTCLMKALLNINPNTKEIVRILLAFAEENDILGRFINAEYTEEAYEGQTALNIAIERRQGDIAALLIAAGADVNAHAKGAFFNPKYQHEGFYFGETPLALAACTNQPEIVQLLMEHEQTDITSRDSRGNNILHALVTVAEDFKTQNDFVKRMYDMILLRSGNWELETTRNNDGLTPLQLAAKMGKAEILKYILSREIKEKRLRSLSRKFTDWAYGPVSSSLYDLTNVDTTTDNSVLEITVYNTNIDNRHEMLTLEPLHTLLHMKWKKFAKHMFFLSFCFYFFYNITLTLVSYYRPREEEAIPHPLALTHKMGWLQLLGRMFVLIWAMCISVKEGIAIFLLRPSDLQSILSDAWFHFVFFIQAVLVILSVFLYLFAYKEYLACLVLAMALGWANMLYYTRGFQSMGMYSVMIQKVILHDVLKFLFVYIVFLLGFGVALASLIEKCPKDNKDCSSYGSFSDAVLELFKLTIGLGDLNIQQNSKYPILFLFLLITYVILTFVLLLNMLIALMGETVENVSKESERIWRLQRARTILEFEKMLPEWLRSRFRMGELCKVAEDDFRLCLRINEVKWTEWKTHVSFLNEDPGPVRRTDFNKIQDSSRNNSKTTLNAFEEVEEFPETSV
Experiment: 45Calcium uptake assay: inhibition of 2-APB induced cellular uptake of radioactive calcium
Type: cell-based
Conditions: human TRPV3 expressing CHO cells, 2-APB 500 μM; for inhibition at 1 µM: 1.0 μM compound, read-out: Percentage inhibition at 1.0 μM; for inhibition at 10 µM: 10.0 μM compound, read-out: Percentage inhibition at 10.0 μM
Excerpt: The illustrative examples of the present invention are screened for TRPV3 activity according to a modified procedure described in Toth, A. et al. Life Sciences (2003), 73, 487-498. The screening of the compounds can be carried out by other methods and procedures known to a person skilled in the art. Such screening methods may be found in Hu, H-Z., et al. J. Biol. Chem. (2004), 279, 35741-35748; Smith, G. D et al. Nature (2002), 418, 186-190 and Peier, A. M., et al. Science (2002), 296, 2046-2049.
Screening for TRPV3 Antagonist Using the ^45Calcium Uptake Assay:
The inhibition of TRPV3 receptor activation was followed as inhibition of 2-APB induced cellular uptake of radioactive calcium. Test compounds were dissolved in DMSO to prepare 20 mM stock and then diluted using plain medium with 0.1% BSA and 1.8 mM CaCl2 to get desired concentration. Final concentration of DMSO in the reaction was 0.5% (v/v). Human TRPV3 expressing CHO cells were grown in F-12 DMEM medium with 10% FBS, 1% penicillin-streptomycin solution, 400 μg/ml of G-418. Cells were seeded 24 h prior to the assay in 96 well plates so as to get ˜50,000 cells per well on the day of experiment. Cells were treated with test compounds for 10 minutes followed by addition of 2-APB at a final concentration of 500 μM and 5 μCi/ml ^45Ca^+2 for 4 minutes. Cells were washed and lysed using buffer containing 1% Triton X-100, 0.1% deoxycholate and 0.1% SDS. Radioactivity in the lysate was measured in Packardt Top count after addition of liquid scintillant.
Concentration response curves were plotted as a % of maximal response obtained in the absence of test antagonist. IC50 value was calculated from concentration response curve by nonlinear regression analysis using GraphPad PRISM software.
Percentage inhibition at concentrations of 1.0 μM and 10.0 μM are given in the table along with IC50 (nM) values for selected examples.

Row | Compound | inhibition at 1 µM | inhibition at 10 µM | IC50
1 | COc1ccc2cc(CCC(=O)N[C@@H]3CC4(CCC4)Oc4ccc(Cl)cc43)ccc2c1 [Example 74] | 64.1% | 90.4% | 1 to 2 µM
2 | COc1cccc(CCC(=O)NC2CC3(CCC3)Oc3cccc(OCc4ccccc4)c32)c1OC1CCCC1 (stereo not drawn) [Example 50, N-(5-Benzyloxy-3,4-dihydrospiro[chromene-2,1′-cyclobutan]-4-yl)-3-(2-cyclopentyloxy-3-methoxy)phenylpropanamide] | 52.8% | 77.6% | 0.5 to 1 µM
3 | CC(C)Oc1c(CCC(=O)NC2CC3(CCC3)Oc3c(Cl)cccc32)cccc1NS(C)(=O)=O (stereo not drawn) [Example 58, N-(8-Chloro-3,4-dihydrospiro[chromene-2,1′-cyclobutan]-4-yl)-3-{2-isopropoxy-3-[(methylsulfonyl)amino]phenyl}propanamide] | 61.7% | 98.7% | 
4 | O=C(CCc1cccc(OC2CCCC2)c1)N[C@H]1CC2(CCC2)Oc2ccc(Cl)cc21 [Example 30, N-[(4S)-6-chloro-3,4-dihydrospiro[chromene-2,1′-cyclobutan]-4-yl]-3-(3-cyclopentyloxy)phenylpropanamide] | 46.8% | 80.6% | 
5 | CCOc1c(CCC(=O)NC2CC3(CCC3)Oc3c(Cl)cccc32)cccc1OC (stereo not drawn) [Example 46, N-(8-Chloro-3,4-dihydrospiro[chromene-2,1′-cyclobutan]-4-yl)-3-(2-ethoxy-3-methoxy)phenylpropanamide] | 53.2% | 99.7% | 0.5 to 1 µM
6 | Cc1cccc(CCC(=O)N[C@H]2CC3(CCC3)Oc3ccc(Cl)cc32)c1OC1CCCC1 [Example 54, (4S)-6-Chloro-N-(3,4-dihydrospiro[chromene-2,1′-cyclobutan]-4-yl)-3-(2-cyclopentyloxy-3-methyl)phenylpropanamide] | 36.2% | 63.6% | 
7 | COc1ccc(CCC(=O)NC2CC3(CCC3)Oc3ccc(Cl)cc32)c2cc(C)oc12 (stereo not drawn) [Example 78, N-(6-chloro-3,4-dihydrospiro[chromene-2,1′-cyclobutan]-4-yl)-3-(2-methyl, 7-methoxy-1-benzofuran-4-yl)propanamide] | 46.1% | 91.3% | 0.5 to 1 µM
8 | O=C(Cc1cccc2ccccc12)N[C@H]1CC2(CCC2)Oc2ccc(Cl)cc21 [Example 13, N-[(4S)-6-Chloro-3,4-dihydrospiro[chromene-2,1′-cyclobutan]-4-yl]-2-(1-naphthyl)-acetamide] | 5.9% | 87.6% | 1 to 2 µM
9 | O=C(CCc1ccccc1OC1CCCC1)N[C@@H]1CC2(CCC2)Oc2c(Cl)cccc21 [Example 31, N-1(4R)-(8-Chloro-3,4-dihydrospiro[chromene-2,1′-cyclobutan]-4-yl)-3-(2-cyclopentyloxy)phenyl propanamide] | 78.6% | 97.4% | 0.5 to 1 µM
10 | O=C(CC1CCc2ccccc2C1)NC1CC2(CCC2)Oc2ccc(Cl)cc21 (stereo not drawn) [Example 22, N-[(6-Chloro-3,4-dihydrospiro[chromene-2,1′-cyclobutan]-4-yl)]-2-(1,2,3,4-tetrahydronaphthalen-2-yl)acetamide] | 35.3% | 72.1% | 
11 | COc1ccc(CCC(=O)NC2CC3(CCC3)Oc3ccc(Cl)cc32)cc1Cl (stereo not drawn) [Example 40, N-(6-Chloro-3,4-dihydrospiro[chromene-2,1′-cyclobutan]-4-yl)-3-(3-chloro-4-methoxy)phenylpropanamide] | 6.8% | 93.5% | 
12 | COc1ccc(CC(=O)NC2CC3(CCC3)Oc3ccc(Cl)cc32)cc1OC (stereo not drawn) [Example 7, N-(6-Chloro-3,4-dihydrospiro[chromene-2,1′-cyclobutan]-4-yl)-2-(3,4-dimethoxyphenyl)acetamide] | 9.2% | 20.3% | 
13 | CCCCOc1c(CCC(=O)NC2CC3(CCC3)Oc3c(Cl)cc(Cl)cc32)cccc1NS(C)(=O)=O (stereo not drawn) [Example 63, N-(6,8-Dichloro-3,4-dihydrospiro[chromene-2,1′-cyclobutan]-4-yl)-3-{2-butoxy-3-[(methylsulfonyl)amino]phenyl}propanamide] | 73.3% | 97% | 
14 | CS(=O)(=O)Nc1cccc(CCC(=O)NC2CC3(CCC3)Oc3c(Cl)cc(Cl)cc32)c1OCC1CC1 (stereo not drawn) [Example 64, N-(6,8-Dichloro-3,4-dihydrospiro[chromene-2,1′-cyclobutan]-4-yl)-3-{2-(cyclopropylmethoxy)-3-[(methylsulfonyl)amino]phenyl}propanamide] | 37.6% | 95.4% | 
15 | COc1cccc(CCCC(=O)NC2CC3(CCC3)Oc3cc(O)ccc32)c1OC1CCCC1 (stereo not drawn) [Example 100, N-(7-Hydroxy-3,4-dihydrospiro[chromene-2,1′-cyclobutan]-4-yl)-4-(2-cyclopentyloxy-3-methoxyphenyl)butanamide] | 19.4% | 87% | 
16 | O=C(CCc1ccccc1OC1CCCC1)NC1CC2(CCC2)Oc2ccc(Cl)cc21 (stereo not drawn) [Example 28, N-(6-Chloro-3,4-dihydrospiro[chromene-2,1′-cyclobutan]-4-yl)-3-(2-cyclopentyloxyphenyl)propanamide] | 58% | 84.3% | 
17 | COc1cccc(CCC(=O)NC2CC3(CCCCC3)Oc3ccc(Cl)cc32)c1OC1CCCC1 (stereo not drawn) [Example 87, N-(6-Chloro-3,4-dihydrospiro[chromene-2,1′-cyclohexan]-4-yl)-3-(2-cyclopentyloxy-3-methoxy)phenylpropanamide] | 26.7% | 67.3% | 
18 | O=C(Cc1cccc2ccccc12)NC1CC2(CCC2)Oc2cccc(O)c21 (stereo not drawn) [Example 17, N-(5-Hydroxy-3,4-dihydrospiro[chromene-2,1′-cyclobutan]-4-yl)-2-(1-naphthyl)-acetamide] | 21.9% | 70% | 
19 | O=C(CCc1cccc2c1oc1ccccc12)NC1CC2(CCC2)Oc2ccc(Cl)cc21 (stereo not drawn) [Example 85, N-(6-Chloro-3,4-dihydrospiro[chromene-2,1′-cyclobutan]-4-yl)-3-(dibenzo[b,d]furan-4-yl)propanamide] | 76.9% | 90.4% | < 0.5 µM
20 | COc1cccc(CCC(=O)NC2CC3(CCC3)Oc3cc(C)c(Cl)cc32)c1OC1CCCC1 (stereo not drawn) [Example 49, N-(6-Chloro-7-methyl-3,4-dihydrospiro[chromene-2,1′-cyclobutan]-4-yl)-3-(2-cyclo-pentyloxy-3-methoxy)phenylpropanamide] | 35.4% | 70.1% | 
21 | O=C(CCc1ccccc1-c1ccccn1)NC1CC2(CCC2)Oc2ccc(Cl)cc21 (stereo not drawn) [Example 35, N-(6-Chloro-3,4-dihydrospiro[chromene-2,1′-cyclobutan]-4-yl)-3-(2-pyridin-2-ylphenyl) propanamide] | 44.8% | 97.6% | 
22 | O=C(CCc1ccc2ccccc2c1)NC1CC2(CCC2)Oc2ccc(Cl)cc21 (stereo not drawn) [Example 73, N-(6-Chloro-3,4-dihydrospiro[chromene-2,1′-cyclobutan]-4-yl)-3-(2-naphthyl)propanamide] | 61.3% | 83.3% | 0.5 to 1 µM
23 | O=C(CCc1ccc2c(c1)OCCO2)NC1CC2(CCC2)Oc2ccc(F)cc21 (stereo not drawn) [Example 81] | 29.1% | 54.8% | 

Reference: US8487121B2, “Chromane derivatives as TRPV3 modulators” (Glenmark Pharmaceuticals S.A., priority 2007, dated 2013)
